Data from patent US20160346249A1 (priority 2012, published 2016).

Columns and labels:
[1] = NADPH dependent metabolism, rat liver microsomes; assay type: in vitro ADME; details: RLM, from EB-1010 10 μM
Experimental: Bicifadine (10 μM) was used as the positive control and the formation of the lactam metabolites of bicifadine (M-12) was monitored.

[2] = test system: FMO, human liver microsome (HLM); experiment: FMO dependent metabolism (pre-incubation temperature), human liver microsomes
Experimental: The microsomal incubation mixtures (ca. 0.2 mL) were prepared in triplicate in 0.1M potassium phosphate buffer (pH 7.4) containing 0.25 mg/mL microsomal protein (RLM and HLM), 1 mM EDTA, 4 mM MgCl2, and […]. Incubation mixtures were pre-incubated aerobically in a shaking water bath at 37° C. and 45° C. respectively for ca. 5 minutes. The reaction was initiated by the addition of NADPH (final concentration of 1 mM). […] For the positive controls, benzydamine (Sigma-Aldrich, St. Louis, Mo.) (final concentration 200 μM) was used in the incubation mixture. For the negative controls, water was used in the incubation mixtures instead of microsome protein. The mixtures were kept at ca. −20° C. before analysis by LC-MS/MS.
The incubation of benzydamine (positive control, 200 μM) was carried out concurrently and the formation of benzydamine N-oxide was monitored by LC-MS/MS.

human recombinant MAO-B = target: T1, human recombinant MAO-B (Homo sapiens, UniProt P27338); experiment: Metabolism by recombinant MAO-B; assay type: in vitro ADME
T1 construct: purchased BD Biosciences, Woburn, Mass
T1 sequence (P27338 1-520): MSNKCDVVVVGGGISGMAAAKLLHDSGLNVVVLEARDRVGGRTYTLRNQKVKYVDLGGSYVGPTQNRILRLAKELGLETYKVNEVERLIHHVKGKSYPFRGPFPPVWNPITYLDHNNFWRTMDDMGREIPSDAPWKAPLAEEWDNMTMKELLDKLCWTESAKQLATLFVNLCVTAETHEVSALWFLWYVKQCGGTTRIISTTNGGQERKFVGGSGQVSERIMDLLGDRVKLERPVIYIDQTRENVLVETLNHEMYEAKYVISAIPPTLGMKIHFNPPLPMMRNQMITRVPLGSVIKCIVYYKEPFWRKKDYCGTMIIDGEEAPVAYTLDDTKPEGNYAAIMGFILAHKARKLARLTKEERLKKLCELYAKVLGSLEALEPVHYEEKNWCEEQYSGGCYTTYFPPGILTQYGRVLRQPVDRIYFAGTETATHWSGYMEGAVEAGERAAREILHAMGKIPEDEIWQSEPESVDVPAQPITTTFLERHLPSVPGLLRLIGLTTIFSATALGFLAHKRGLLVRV
Experimental: Incubation systems (ca. 0.2 mL) of human recombinant MAO-A (1.0 mg/mL) and MAO-B (1.0 mg/mL) (BD Biosciences, Woburn, Mass.) were prepared in triplicated 0.1 M potassium phosphate buffer (pH 7.4) (BD Biosciences, Woburn, Mass.). […] The negative samples were prepared as described above, with the exception that instead of HLM, HLmito, or recombinant enzymes, water was added to the incubation mixture.

[3] = Acute intravenous or oral mouse bioavailability study; assay type: in vivo; details: plasma, fasted male mice, oral 6 mg/kg vs IV 5 mg/kg
Experimental: Fasted male mice were used in this study. Concentrations were determined using an LC/MS/MS assay following liquid-liquid extraction of plasma samples. Bioavailability was calculated using the mean normalized AUC0-∞ values obtained following oral administration of 6 mg/kg relative to the mean normalized AUC0-∞ at 5 mg/kg IV.

[4] = Single-dose (25 mg) food effect crossover study in 24 men (DOV 947-003); assay type: in vivo, human; details: for AUC(0-inf) / AUC(0-t) / Cmax / Tmax / half-life: male, human, in vivo, po, single oral dose 25 mg, 24 healthy male subjects
[5] = Single-dose (25 mg) gender study in males and females (DOV-947-005); assay type: in vivo, human; details: for AUC(0-inf) / AUC(0-t) / Cmax / Tmax / half-life: human, in vivo, single oral dose 25 mg
[6] = Phase 1b multiple-dose placebo-controlled safety study, 8 weeks; assay type: in vivo, human
Excerpt: This Phase 1b study enrolled 46 male and female subjects.

[7] = 8 weeks, 25 to 75 mg BID, N = 31, Safety Population

Question: What does the source list for `O=C1NCC2(c3ccc(Cl)c(Cl)c3)CC12` (stereo not shown) [EB-10101, 5-(3,4-dichloro-phenyl)-3-aza-bicyclo[3.1.0]hexan-2-one]?
Answer: amount formed with NADPH vs without NADPH [1]: ~5 fold; FMO mediation of formation [2]: not FMO-mediated in humans; MAO-B mediation of formation (human recombinant MAO-B): not MAO-B mediated

Question: With `Clc1ccc([C@]23CNC[C@H]2C3)cc1Cl` [amitifadine, (+)-1-(3,4-dichlorophenyl)-3-azabicyclo[3.1.0]hexane] as the compound, how does the bioavailability [3] read?
Answer: Its bioavailability is about 16%.

Question: What about the “effect of food on exposure” value ([4]; fed vs fasted) of the same compound?
Answer: The value was “no effect of food on exposure”.

Question: What about the AUC(0-inf) ([4]; Fasted) of the same compound?
Answer: Its AUC(0-inf) is 1290 ng·h/mL.

Question: What about the AUC(0-t) ([4]; Fasted) of the same compound?
Answer: Its AUC(0-t) is 1200 ng·h/mL.

Question: What about the Cmax ([4]; Fasted) of the same compound?
Answer: Its Cmax is 272 ng/mL.

Question: What about the Tmax ([4]; Fasted) of the same compound?
Answer: The Tmax was 0.98 h.

Question: And the half-life ([4]; Fasted)?
Answer: The half-life was 3.42 h.

Question: What about the AUC(0-inf) ([4]; Fed) of the same compound?
Answer: Its AUC(0-inf) is 1420 ng·h/mL.

Question: What about the AUC(0-t) ([4]; Fed) of the same compound?
Answer: Its AUC(0-t) is 1320 ng·h/mL.

Question: And the Cmax ([4]; Fed)?
Answer: The Cmax was 224 ng/mL.

Question: And the Tmax ([4]; Fed)?
Answer: The Tmax was 2.57 h.

Question: And the half-life ([4]; Fed)?
Answer: The half-life was 3.71 h.

Question: What about the QTc prolongation ([5]; 25 mg) of the same compound?
Answer: The QTc prolongation was “no sustained or significant prolongation of QTc”.

Question: What about the “gender difference in Cmax or AUC” value ([5]; 25 mg) of the same compound?
Answer: The value was “no difference in either Cmax or AUC values between the two sexes”.

Question: What about the “subjects with orthostatic hypotension” value ([5]; all subjects, 25 mg) of the same compound?
Answer: The value was 30%.

Question: What about the AUC(0-inf) ([5]; female, Females (N = 38)) of the same compound?
Answer: Its AUC(0-inf) is 1590 ng·h/mL.

Question: What about the AUC(0-t) ([5]; female, Females (N = 38)) of the same compound?
Answer: Its AUC(0-t) is 1490 ng·h/mL.

Question: What about the Cmax ([5]; female, Females (N = 38)) of the same compound?
Answer: Its Cmax is 291 ng/mL.

Question: And the Tmax ([5]; female, Females (N = 38))?
Answer: Its Tmax is 1.38 h.

Question: What about the half-life ([5]; female, Females (N = 38)) of the same compound?
Answer: The half-life was 3.73 h.

Question: What about the “subjects with orthostatic hypotension” value ([5]; females, 25 mg) of the same compound?
Answer: Its value is 28.9%.

Question: What about the AUC(0-inf) ([5]; male, Males (N = 32)) of the same compound?
Answer: The AUC(0-inf) was 1440 ng·h/mL.

Question: What about the AUC(0-t) ([5]; male, Males (N = 32)) of the same compound?
Answer: Its AUC(0-t) is 1360 ng·h/mL.

Question: What about the Cmax ([5]; male, Males (N = 32)) of the same compound?
Answer: The Cmax was 273 ng/mL.

Question: And the Tmax ([5]; male, Males (N = 32))?
Answer: The Tmax was 1.27 h.

Question: And the half-life ([5]; male, Males (N = 32))?
Answer: Its half-life is 3.41 h.

Question: And the “subjects with orthostatic hypotension” value ([5]; males, 25 mg)?
Answer: Its value is 31.3%.

Question: And the “Abdomibal Pain Upper, % of subjects” value [6, 7]?
Answer: Its value is 0.0%.

Question: What about the “Abdomibal Pain Upper, number of subjects with AE” value [6, 7] of the same compound?
Answer: Its value is 0.

Question: What about the “Abdominal Pain Lower, % of subjects” value [6, 7] of the same compound?
Answer: Its value is 0.0%.

Question: And the “Abdominal Pain Lower, number of subjects with AE” value [6, 7]?
Answer: The value was 0.

Question: What about the “Diarrhea, % of subjects” value [6, 7] of the same compound?
Answer: The value was 6.5%.

Question: What about the “Diarrhea, number of subjects with AE” value [6, 7] of the same compound?
Answer: Its value is 2.

Question: And the “Dizziness, % of subjects” value [6, 7]?
Answer: Its value is 6.5%.

Question: What about the “Dizziness, number of subjects with AE” value [6, 7] of the same compound?
Answer: The value was 2.

Question: And the “Gastroesophageal Reflux Disease, % of subjects” value [6, 7]?
Answer: Its value is 0.0%.

Question: What about the “Gastroesophageal Reflux Disease, number of subjects with AE” value [6, 7] of the same compound?
Answer: Its value is 0.

Question: And the “Headache, % of subjects” value [6, 7]?
Answer: Its value is 22.6%.

Question: And the “Headache, number of subjects with AE” value [6, 7]?
Answer: The value was 7.

Question: And the “Hyperhidrosis, % of subjects” value [6, 7]?
Answer: Its value is 3.2%.

Question: And the “Hyperhidrosis, number of subjects with AE” value [6, 7]?
Answer: The value was 1.

Question: And the “Increased Appetite, % of subjects” value [6, 7]?
Answer: The value was 3.2%.

Question: And the “Increased Appetite, number of subjects with AE” value [6, 7]?
Answer: Its value is 1.

Question: What about the “Metrorrhagia, % of subjects” value [6, 7] of the same compound?
Answer: Its value is 3.2%.

Question: And the “Metrorrhagia, number of subjects with AE” value [6, 7]?
Answer: The value was 1.

Question: And the “Nausea, % of subjects” value [6, 7]?
Answer: Its value is 16.1%.

Question: And the “Nausea, number of subjects with AE” value [6, 7]?
Answer: The value was 5.

Question: And the “Pruritus, % of subjects” value [6, 7]?
Answer: Its value is 3.2%.

Question: What about the “Pruritus, number of subjects with AE” value [6, 7] of the same compound?
Answer: Its value is 1.

Question: And the “Rhinitis Allergic, % of subjects” value [6, 7]?
Answer: Its value is 3.2%.

Question: And the “Rhinitis Allergic, number of subjects with AE” value [6, 7]?
Answer: The value was 1.

Question: And the “Skin Rash, % of subjects” value [6, 7]?
Answer: The value was 3.2%.

Question: And the “Skin Rash, number of subjects with AE” value [6, 7]?
Answer: Its value is 1.

Question: And the “Subjects with at Least One AE, %” value [6, 7]?
Answer: Its value is 35.5%.

Question: What about the “Syncope, % of subjects” value [6, 7] of the same compound?
Answer: The value was 0.0%.

Question: What about the “Syncope, number of subjects with AE” value [6, 7] of the same compound?
Answer: The value was 0.

Question: What about the “Toothache, % of subjects” value [6, 7] of the same compound?
Answer: Its value is 3.2%.

Question: And the “Toothache, number of subjects with AE” value [6, 7]?
Answer: Its value is 1.

Question: What about the “Total Number of Subjects with at Least One AE” value [6, 7] of the same compound?
Answer: Its value is 11.

Question: What about the “proportion of subjects with TEAEs” value ([6]; 25-75 mg BID, 8 weeks) of the same compound?
Answer: The value was 36%.

Question: And the “Completed Subjects, %” value ([6]; Randomized Population, N = 31)?
Answer: Its value is 74.2%.

Question: What about the “Premature discontinuation: Adverse Event, %” value ([6]; Randomized Population, N = 31) of the same compound?
Answer: The value was 3.2%.

Question: What about the “Premature discontinuation: Allergic Reaction to Study Medication, %” value ([6]; Randomized Population, N = 31) of the same compound?
Answer: The value was 3.2%.

Question: And the “Premature discontinuation: Lost to Follow Up, %” value ([6]; Randomized Population, N = 31)?
Answer: The value was 3.2%.

Question: And the “Premature discontinuation: Other, %” value ([6]; Randomized Population, N = 31)?
Answer: Its value is 9.7%.

Question: And the “Premature discontinuation: Subject Requested Withdrawal, %” value ([6]; Randomized Population, N = 31)?
Answer: Its value is 6.5%.

Question: And the “Withdrawal/Early Termination, %” value ([6]; Randomized Population, N = 31)?
Answer: The value was 25.8%.

Question: And the “reduction in mean triglyceride levels” value ([6]; end of treatment period)?
Answer: Its value is about 29%.

Question: And the “reduction in mean triglyceride levels” value ([6]; following 2 weeks of treatment)?
Answer: The value was about 23%.

Question: What about the “subjects who dropped out due to AEs” value ([6]; in vivo) of the same compound?
Answer: The value was 3.2%.
